# According to paper PMC10086185, “Synthesis, radiolabeling, and evaluation of a (4-quinolinoyl)glycyl-2-cyanopyrrolidine analogue for fibroblast activation protein (FAP) PET imaging” (Frontiers in Bioengineering and Biotechnology, 2023):
# Where two headings read alike, the source gives them in different places.
# Assays:
# FAP = conditions: cited from earlier work; for EC50: ref Lindner et al., 2018
# U87MG cells = assay: Cellular uptake of [^18F]3 in U87MG cells; type: cell-based; conditions: U87 cells; compound 3 10 µM
# Description: (§1) Briefly, all cells were divided into the following two groups: A: blocking group and B: vehicle group. All cells were cultured, grouped, and plated (approximately 2*10^6 cells per well) before use. Cells were treated with [^18F]3 (74 KBq) and incubated at 37°C under a 5% CO2 atmosphere. […] Incubated at 37°C for 1 h, the medium from each well was removed, and the cells were washed twice with 1 mL of PBS. The medium and the PBS from each well were combined and counted in a Gamma counter (PerkinElmer Wizard 2470) for radioactivity counts. The cells were then handled with 1 mL of 1 M NaOH, and the lysates were also counted in the Wizard 2470 gamma counter. The uptake ratios for each group were then calculated with this equation: %Dose = […](medium counts + PBS counts + cell lysate counts).
# [1] = test system: A549-FAPI cells (human FAP-expressing A549); assay: Cellular uptake of [^18F]3 in A549-FAPI cells; type: cell-based; conditions: compound 3 10 µM
# Description: as §1
# [2] = test system: A549-FAPI xenograft tumors; assay: Micro-PET/CT imaging, A549-FAPI xenograft tumors; type: in vivo, BALB/c nude mice; conditions: A549-FAPI tumors; pre-injection of compound 3, 2 mg/kg
# Description: BALB/c nude mice used in this study were obtained from the Animal Center of Sichuan University. Tumor-bearing mouse models were established by the subcutaneous injection of 100 µL of PBS suspension containing approximately 1*10^6 tumor cells to the body side of the subjects. The tumor volume was monitored every day, and the tumor-bearing mice were ready for imaging once the tumor volume reached 0.5 mm^3 (tumor volume can be calculated by this equation: Volume = 0.5 * long tail * short tail *short tail). Micro-PET/CT imaging studies were performed on the IRIS Micro-PET/CT system (Inviscan SAS, France). Tumor-bearing mice were injected with approximately 11.2–14.8 MBq of [^18F]3 (200 µL) via the tail vein under anaesthetization by isoflurane. Static PET images were obtained at designated time points and were reconstructed with a 3D-OSEM algorithm using a Monte Carlo-based accurate detector model. Then, 170 sec-CT acquisition was conducted with 50 kV, 1 mA X-ray output for attenuation correction and anatomical orientation. ROIs (regions of interest) were drawn on the lung, kidney, liver, and tumor by OsiriX software. SUV (standardized uptake value) of the ROIs was directly obtained from OsiriX for each subject according to this formula: SUV = Voxal value (Bq/mL) * Body weight (kg)/(Decay corrected Dose (Bq) * 1,000 (g/kg)).
# BALB/c nude mice used in this study were obtained from the Animal Center of Sichuan university. Tumor-bearing mice model were established by the subcutaneous injection of 100 µL of PBS suspension containing approximately 1*10^6 tumor cells to the body side of the subjects. The tumor volume was monitored every day and the tumor-bearing mice were ready for imaging once the tumor volume reach 0.5 mm^3 (tumor volume can be calculated by this equation: Volume = 0.5 * long tail * short tail *short tail). Micro-PET/CT imaging studies were performed on the IRIS Micro-PET/CT system (Inviscan SAS, France). Tumor-bearing mice were injected with approximately 11.2-14.8 MBq of [^18F]3 (200 µL) via tail vein under anaesthetization by isoflurane. Static PET images were obtained at designated time points and were reconstructed with a 3D-OSEM algorithm using a Monte-Carlo based accurate detector model. A 170 sec-CT acquisition was conducted with 50 kV, 1 mA X-ray output for attenuation correction and anatomical orientation. ROIs (regions of interest) were drawn on lung, kidney, liver and tumor by Osirix software. SUV (standardized uptake value) of the ROIs was directly obtained from Osirix for each subject according to this formula: SUV = Voxal value (Bq/mL) * Body weight (kg)/(Decay corrected Dose (Bq) * 1000 (g/kg)).
# [3] = FAP, ref Wang et al., 2022, read-out: IC50
# [4] = ref Jansen et al., 2013, Jansen et al., 2014, read-out: FAP IC50
structure (smiles),measurement,setting,value
N#C[C@@H]1CCCN1C(=O)CNC(=O)c1ccnc2ccc(OCCCN3CCN(C(=O)CN4CCN(CC(=O)O)CCN(CC(=O)O)CCN(CC(=O)O)CC4)CC3)cc12 [FAPI-02],EC50,FAP,21 nM
N#C[C@@H]1CC(F)(F)CN1C(=O)CNC(=O)c1ccnc2ccc(OCCCN3CCN(C(=O)CN4CCN(CC(=O)O)CCN(CC(=O)O)CCN(CC(=O)O)CC4)CC3)cc12 [FAPI-04],EC50,FAP,6.5 nM
[11CH3]Oc1ccc2nccc(C(=O)NCC(=O)N3CCC[C@H]3C#N)c2c1 [[^11C]RJ001],IC50,FAP; [3],9.2 nM
[11CH3]Oc1ccc2nccc(C(=O)NCC(=O)N3CC(F)(F)C[C@H]3C#N)c2c1 [[^11C]RJ002],IC50,FAP; [3],8.5 nM
N#C[C@@H]1CCCN1C(=O)CNC(=O)c1ccnc2ccc(F)cc12 [compound 2],IC50,FAP; [4],10.3 nM
N#C[C@@H]1CC(F)(F)CN1C(=O)CNC(=O)c1ccnc2ccc(F)cc12 [compound 3],Uptake in blocking group as % of vehicle group,U87MG cells,79.38%
same,Uptake in blocking group as % of vehicle group,[1],52.34%
same,Inhibition of tumor SUV,[2],over 50%
same,Inhibitory activity against FAP,FAP; ref previous SAR studies,nanomolar activity
